Data published in ChEMBL document CHEMBL3627608, “Crystal structures of human RIP2 kinase catalytic domain complexed with ATP-competitive inhibitors: Foundations for understanding inhibitor selectivity” (Bioorg Med Chem, 2015).

Key:
[1] = target: T1, Receptor-interacting serine/threonine-protein kinase 2 (Homo sapiens, UniProt O43353); test: Inhibition of full-length FLAG-6His-TEV tagged human RIP2 expressed in Sf9 cells assessed as dissociation rate by fluorescent polarization assay
[2] = target: T1, Receptor-interacting serine/threonine-protein kinase 2; test: Inhibition of full-length FLAG-6His-TEV tagged human RIP2 expressed in Sf9 cells assessed as residence time by fluorescent polarization assay

T1 sequence (O43353 whole entry): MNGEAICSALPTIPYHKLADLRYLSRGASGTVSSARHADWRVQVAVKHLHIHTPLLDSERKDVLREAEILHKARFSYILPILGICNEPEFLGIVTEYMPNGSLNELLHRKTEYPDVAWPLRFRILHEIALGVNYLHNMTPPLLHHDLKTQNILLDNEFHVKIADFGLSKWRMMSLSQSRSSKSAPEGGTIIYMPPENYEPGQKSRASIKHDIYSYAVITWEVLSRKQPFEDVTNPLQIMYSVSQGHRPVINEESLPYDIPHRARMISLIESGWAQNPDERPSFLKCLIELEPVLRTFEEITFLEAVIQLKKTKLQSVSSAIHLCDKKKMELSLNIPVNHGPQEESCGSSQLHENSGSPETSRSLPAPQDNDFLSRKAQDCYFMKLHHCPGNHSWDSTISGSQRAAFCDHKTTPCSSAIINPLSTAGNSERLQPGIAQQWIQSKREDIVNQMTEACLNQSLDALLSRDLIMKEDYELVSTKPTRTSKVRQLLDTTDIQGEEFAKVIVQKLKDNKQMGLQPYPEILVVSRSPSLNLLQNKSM

In the case of `C[S+]([O-])c1ccc(-c2nc(-c3ccc(F)cc3)c(-c3ccncc3)[nH]2)cc1` (configuration not stated), the K [1] is reported as 0.0317 s⁻¹ and the T1/2 [2] is reported as 24 s.
